According to US4994485A, “Thio compounds having fungicidal activity” (Duphar International Research B.V., priority 1986, dated 1991):

Assays:
Pythium splendens = assay: In vitro test on activity against Pythium splendens; format: cell-based; details: Globisporangium splendens, read-out: growth inhibition of the fungus
Fusarium culmorum [1] = assay: In vitro test on activity against Fusarium culmorum; format: cell-based; details: read-out: growth inhibition of the fungus
Leptosphaeria nodorum = assay: In vitro test on activity against Leptosphaeria nodorum; format: cell-based; details: Parastagonospora nodorum, read-out: growth inhibition of the fungus
Protocol: (§1) The compound to be tested is processed in a culture medium consisting of 1% by weight of glucose, 0.2% by weight of a yeast extract (marmite), 0.5% by weight of a protein (pepton), 2.5% by weight of agar-agar, and 95.8% by weight of water, in petri dishes in concentrations of 3 and 10 ppm. The petri dishes are inoculated with the plant-pathogenic fungus Pyrenophora graminea and then kept at a temperature of 20° C. After 48 hours the growth-inhibiting activity of the compounds is determined visually. For comparison, the known substance (b) (see EXAMPLE XV) is also tested.
Compounds according to the invention are tested on i Leptosphaeria nodorum in the same manner as described in EXAMPLE XIX.

Pyrenophora graminea = assay: In vitro test on activity against Pyrenophora graminea; format: cell-based; details: 48 hours, 20° C., read-out: % growth inhibition of the fungus
Protocol: In vitro test on activity against Pyrenophora graminea.
as §1

Rhizoctonia solani = assay: In vitro test on activity against Rhizoctonia solani; format: cell-based; details: read-out: growth inhibition of the fungus
Protocol: as §1, with “in petri dishes in concentrations of 3 and 10 ppm.” left out
Compounds according to the invention are tested on Rhizoctonia solani in the same manner as described in EXAMPLE XIX.

Fusarium culmorum [2] = assay: Protection of seedlings against plant pathogenic seed fungus by seed treatment (wheat); format: in vivo; details: wheat seed infested with Fusarium culmorum; 3 g composition (10% by weight in kaolin) per kg of seed; after three weeks, 8°-12° C.; untreated 67
Protocol: Test with respect to the protection of seedlings against a plant pathogenic seed fungus, namely Fusarium culmorum, by means of a seed treatment.
Wheat seed, infested with Fusarium culmorum, is treated with the substance to be tested in the form of a composi tion in a quantity of 3 g per kg of seed. The composition is obtained by pulverising the substance to be tested and then intimately mixing with kaolin in a concentration of 10% by weight. The seed thus treated is sown in a tray containing soil which is placed in a Wisconsin tank with a bottom temperature of 8°-12° C. After three weeks the number of emerged and healthy plants is determined. The emergence of healthy plants from untreated seed serves as control. For comparison, the known substances 2-methylsulphinyl-4-methyl-5-nitrothiazole (a), 2-methylsulphinyl-3-nitrothiophene (b) and 2-ethylsulphinyl-3-nitro-5-acetylthiophene (c) mentioned hereinbefore are also tested. In the examples, the numbers of the compounds refer to the specification.

Pythium spp. = assay: Protection of seedlings against plant-pathogenic soil fungus by seed treatment (beet); format: in vivo; details: after 3 weeks, 18°-22° C., untreated 72
Protocol: Test with respect to the protection of seedlings against a plant-pathogenicsoil fungus, namely Pythium spp., by means of a seed treatment.
The compounds to be tested are processed to compositions by pulverising them and then mixing them intimately with kaolin in the desired concentration (see Table B). Beet seed is treated with these compositions in a quantity of 6 g of composition per kg of seed and then sown in trays with soil which was seriously infested with Pythium spp. After 3 weeks in a glass-house at 18°-22° C. and a relative humidity of 70-100%, the percentage of non-emerged and diseased seedlings (damping-off) is determined. The results are recorded in Table B. For comparison, the known substance 2-methylsulphinyl-4-methyl-5-nitrothiazole(a) is also tested.

[3] = 600 mg of active substance per kg of seed
[4] = 1200 mg of active substance per kg of seed

SMILES	inhibition at 10 ppm (Pythium splendens)	inhibition at 30 ppm (Fusarium culmorum [1])	inhibition at 30 ppm (Leptosphaeria nodorum)	inhibition at 10 ppm (Pyrenophora graminea)	inhibition at 30 ppm (Rhizoctonia solani)	Percentage of emerged, healthy plants (Fusarium culmorum [2])	percentage damping-off (Pythium spp.; [3])	percentage damping-off (Pythium spp.; [4])	inhibition at 3 ppm (Pyrenophora graminea)
C[S+]([O-])c1sc(C#N)c(-c2ccc(Cl)cc2)c1C#N (stereo not drawn) [(35), 2-methylsulphinyl-3,5-dicyano-4-(4-chlorophenyl)thiophene]	≥ 95%	≥ 75%	≥ 85%	76%	–	–	–	–	–
N#Cc1sc([S+]([O-])c2ccccc2)c(C#N)c1Cl (stereo not drawn) [(82), 2 phenylsulphinyl-3,5-dicyano-4-chlorothiophene]	≥ 95%	≥ 75%	–	80%	–	–	–	–	–
C[S+]([O-])c1sc(C(=O)c2ccccc2)c(Cl)c1C#N (stereo not drawn) [(31), 2-methylsulphinyl-3-cyano-4-chloro 5-benzoylthiophene]	≥ 95%	≥ 75%	≥ 85%	77%	–	–	–	–	–
CC[S+]([O-])c1sc(C(=O)c2ccc(Cl)cc2)c(N)c1C#N (stereo not drawn) [(66), 2 ethylsulphinyl-3-cyano-4-amino-5-(4-chlorobenzoyl)thiophene]	≥ 95%	–	–	84%	–	–	–	–	–
CCCCCC[S+]([O-])c1sc(C#N)c(Cl)c1C#N (stereo not drawn) [(34), 2-n-hexylsulphinyl-3,5-dicyano-4-chlorothiophene]	≥ 95%	≥ 75%	≥ 85%	–	≥ 75%	–	–	–	–
CCSC(=C(C#N)c1ccc(Cl)cc1)[S+]([O-])CC (stereo not drawn) [(53), α-cyano-β-ethylsulphinyl-β-ethylthio-4-chlorostyrene]	–	≥ 75%	≥ 85%	83%	–	–	–	–	–
CC[S+]([O-])c1sc(C(C)=O)cc1C#N (stereo not drawn) [(9), 2-ethylsulphinyl-3-cyano-5-acetylthiophene]	≥ 95%	–	≥ 85%	–	–	85%	15%	11%	–
CCOc1c(C#N)sc([S+]([O-])CC)c1C#N (stereo not drawn) [(14), 2-ethylsulphinyl-3,5-dicyano-4-ethoxythiophene]	≥ 95%	≥ 75%	≥ 85%	–	–	87%	23%	20%	–
CCCC[S+]([O-])c1sc(C(C)=O)c(Br)c1C#N (stereo not drawn) [(86), 2-n-butylsulphinyl-3-cyano-4-bromo-5-acetylthiophene]	≥ 95%	≥ 75%	≥ 85%	76%	–	–	–	–	–
CCCCS(=O)(=O)c1sc(C#N)c(Br)c1C#N [(89), 2-n-butylsulphonyl 3,5-dicyano-4-bromothiophene]	≥ 95%	≥ 75%	≥ 85%	–	–	–	–	–	–
CC[S+]([O-])c1sc(C(=O)c2ccc(Cl)cc2)c(Cl)c1C#N (stereo not drawn) [(72), 2-ethylsulphinyl-3-cyano-4-chloro-5-(4-chlorobenzoyl)thiophene]	≥ 95%	≥ 75%	≥ 85%	70%	–	–	–	–	–
CCCC[S+]([O-])c1sc(C#N)c(OC)c1C#N (stereo not drawn) [(41), 2-n-butylsulphinyl-3,5-dicyano 4-methoxythiophene]	≥ 95%	≥ 75%	≥ 85%	–	–	–	–	–	–
C[S+]([O-])c1sc(C(=O)c2ccc(Cl)cc2)c(Cl)c1C#N (stereo not drawn) [(42), 2-methylsulphinyl-3-cyano-4-chloro-5-(4-chlorobenzoyl) thiophene]	≥ 95%	≥ 75%	≥ 85%	–	≥ 75%	–	–	–	–
CC[S+]([O-])c1sc(C(=O)c2ccc(Cl)cc2)cc1C#N (stereo not drawn) [(47), 2-ethylsulphinyl-3-cyano-5-(4-chlorobenzoyl)thiophene]	≥ 95%	≥ 75%	≥ 85%	74%	–	–	–	–	–
C[S+]([O-])c1sc(C(=O)c2ccccc2)cc1C#N (stereo not drawn) [(51), 2-methylsulphinyl-3-cyano-5-benzoylthiophene]	–	≥ 75%	≥ 85%	71%	–	–	–	–	–
CC(=O)c1sc([S+](C)[O-])c(C#N)c1-c1ccc(Cl)cc1 (stereo not drawn) [(6), 2-methylsulphinyl 3-cyano-4-(4-chlorophenyl)-5-acetylthiophene]	≥ 95%	–	–	77%	–	–	–	–	54%
CC(=O)c1cc(C#N)c([S+](C)[O-])s1 (stereo not drawn) [(1), 2-methylsulphinyl-3-cyano-5-acetylthiophene]	≥ 95%	–	–	–	–	91%	8%	7%	–
CSC(=C(C#N)c1ccc(Cl)cc1)[S+](C)[O-] (stereo not drawn) [(19), α-cyanoβ-methylsulphinyl-β-methylthio-4-chlorostyrene]	≥ 95%	≥ 75%	≥ 85%	–	≥ 75%	–	–	–	–
N#Cc1sc([S+]([O-])Cc2ccccc2)c(C#N)c1Cl (stereo not drawn) [(78), 2-benzylsulphinyl-3,5-dicyano-4-chlorothiophene]	≥ 95%	≥ 75%	–	86%	–	–	–	–	–
CC[S+]([O-])c1sc(C(C)=O)c(Cl)c1C#N (stereo not drawn) [(5), 2-ethylsulphinyl-3-cyano-4-chloro-5-acetylthiophene]	≥ 95%	≥ 75%	≥ 85%	89%	–	85%	21%	17%	54%
CCCC[S+]([O-])c1sc(C#N)c(Br)c1C#N (stereo not drawn) [(79), 2-n-butylsulphinyl-3,5-dicyano-4-bromothiophene]	≥ 95%	≥ 75%	–	80%	–	–	–	–	–
COc1c(C#N)sc([S+](C)[O-])c1C#N (stereo not drawn) [(12), 2-methylsulphinyl-3,5-dicyano-4-methoxythiophene]	≥ 95%	≥ 75%	≥ 85%	–	–	93%	0%	0%	–
CCCC[S+]([O-])c1sc(C#N)cc1C#N (stereo not drawn) [(80)]	≥ 95%	≥ 75%	–	–	≥ 75%	–	–	–	–
CC[S+]([O-])c1sc(C#N)c(Oc2ccccc2)c1C#N (stereo not drawn) [(94), 2-ethylsulphinyl-3,5-dicyano-4-phenoxythiophene]	≥ 95%	–	≥ 85%	70%	–	–	–	–	–
N#Cc1cc(C#N)c([S+]([O-])c2ccccc2)s1 (stereo not drawn) [(32), 2-phenylsulphinyl-3,5-dicyanothiophene]	≥ 95%	≥ 75%	≥ 85%	–	–	–	–	–	–
CSC(=C(C#N)c1ccc(Cl)c(Cl)c1)[S+](C)[O-] (stereo not drawn) [(15), α-cyano-β-merhylsulphinyl-β-methylthio-3,4-dichloro-styrene]	≥ 95%	–	≥ 85%	–	≥ 75%	–	–	–	–
CCC[S+]([O-])c1sc(C(=O)c2ccccc2)c(N)c1C#N (stereo not drawn) [(67), 2-n-propylsulphinyl-3-cyano-4-amino-5-benzoylthiophene]	≥ 95%	≥ 75%	≥ 85%	–	–	–	–	–	–
N#Cc1cc(C#N)c(S(=O)(=O)c2ccccc2)s1 [(45), 2-phenylsulphonyl-3,5-dicyanothiophene]	≥ 95%	≥ 75%	≥ 85%	–	–	–	–	–	–
